The record followed here is PubChem BioAssay (NCI).

Some test systems named below: HCT-116 colon; UACC-62 melanoma; EKVX NSCLC; SR leukemia; NCI-H522 lung; PC-3 prostate; LOX IMVI melanoma; OVCAR-8 ovarian; SW-620 colon; HT29 colon.
What all share (experiment): growth of human tumour cells (NCI), 48 h

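Briefly, cells in 96-well plates were exposed to five compound concentrations for 48 h, and endpoints were estimated by linear interpolation. The concentration for 50% growth inhibition is given as GI50. Definition used: TGI = concentration required for complete inhibition of growth.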

As for `CS(=N)(=O)CCC(N)P(=O)(O)O` (stereo not given), the TGI in the experiment with HCT-116 colon, with UACC-62 melanoma, in the experiment with EKVX NSCLC, in the experiment on SR leukemia, with NCI-H522 lung and in the experiment on PC-3 prostate was greater than 100 µM each time. The TGI in the experiment on LOX IMVI melanoma, in the experiment on OVCAR-8 ovarian, in the experiment with SW-620 colon and in the experiment on HT29 colon was greater than 100 µM each time.
Take `Cc1cc(C(O)(c2ccc(Nc3ccccc3)cc2)c2ccc(Nc3ccc(S(=O)(=O)O)cc3)cc2)ccc1N` (stereo not given): the GI50 in the experiment on HCT-116 colon was 1.21 µM; in the experiment with UACC-62 melanoma, 0.499 µM; with EKVX NSCLC it was 1.49 µM; with SR leukemia it was 0.713 µM; in the experiment with NCI-H522 lung, 1.26 µM; in the experiment on PC-3 prostate it was 1.31 µM. Moreover, the GI50 is 0.975 µM with LOX IMVI melanoma, 1.08 µM in the experiment on OVCAR-8 ovarian, 0.818 µM with SW-620 colon and 0.516 µM in the experiment on HT29 colon. For the same compound, the TGI with HCT-116 colon was 2.65 µM; in the experiment with UACC-62 melanoma it was 2.12 µM; in the experiment with EKVX NSCLC it was 3.89 µM; in the experiment with SR leukemia, greater than 100 µM; with NCI-H522 lung, 4.44 µM; in the experiment on PC-3 prostate, 6.18 µM. The TGI in the experiment on LOX IMVI melanoma turned out to be 2.17 µM; with OVCAR-8 ovarian it was 3.57 µM; in the experiment on SW-620 colon, 3.27 µM; in the experiment with HT29 colon, 2.34 µM.
